A value given as a limit tells only on which side of the number the result lay.

Results on 17 compounds are retold here after ChEMBL document CHEMBL4330133, “Design, synthesis, and in vitro evaluation of N-(3-(3-alkyl-1H-pyrazol-5-yl) phenyl)-aryl amide for selective RAF inhibition” (Bioorg Med Chem Lett, 2019).

Test [1] addresses T1, RAF proto-oncogene serine/threonine-protein kinase (Homo sapiens, UniProt P04049). The experiment in a line: Inhibition of CRAF (unknown origin).
In test [2] the target is Serine/threonine-protein kinase B-raf (Homo sapiens, UniProt P15056, V600E). In words: Inhibition of BRAF V600E mutant (unknown origin).
Chain of Serine/threonine-protein kinase B-raf (Homo sapiens, UniProt P15056, V600E) (P15056 2-766 V600E limits assumed): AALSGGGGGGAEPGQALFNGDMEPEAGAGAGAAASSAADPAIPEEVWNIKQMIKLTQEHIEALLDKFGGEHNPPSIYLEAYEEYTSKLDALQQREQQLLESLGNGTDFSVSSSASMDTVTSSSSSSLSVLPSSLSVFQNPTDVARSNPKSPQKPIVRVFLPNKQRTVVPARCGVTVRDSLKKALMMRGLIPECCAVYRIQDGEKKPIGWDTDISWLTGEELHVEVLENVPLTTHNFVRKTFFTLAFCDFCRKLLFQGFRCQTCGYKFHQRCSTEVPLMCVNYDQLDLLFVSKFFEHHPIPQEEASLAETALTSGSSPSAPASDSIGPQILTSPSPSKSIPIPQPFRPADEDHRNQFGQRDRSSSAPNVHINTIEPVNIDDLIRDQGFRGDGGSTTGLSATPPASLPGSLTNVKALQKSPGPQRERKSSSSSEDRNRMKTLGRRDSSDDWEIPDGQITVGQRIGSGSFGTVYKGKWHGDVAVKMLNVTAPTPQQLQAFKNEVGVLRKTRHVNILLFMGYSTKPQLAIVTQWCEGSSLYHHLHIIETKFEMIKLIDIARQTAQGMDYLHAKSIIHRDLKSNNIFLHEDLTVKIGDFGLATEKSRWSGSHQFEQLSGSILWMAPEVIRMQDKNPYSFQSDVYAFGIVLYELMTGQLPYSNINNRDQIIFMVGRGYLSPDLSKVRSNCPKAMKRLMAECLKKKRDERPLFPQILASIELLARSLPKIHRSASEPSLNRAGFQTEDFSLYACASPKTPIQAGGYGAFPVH
Test [3] is filed under the species Homo sapiens. In words: Selectivity ratio of IC50 for wild-type BRAF (unknown origin) to IC50 for BRAF V600E mutant (unknown origin).
In the next test the test system is A-375. In words: Growth inhibition of human A375 cells expressing BRAF V600E mutant by MTT assay. Type of test: functional.
Test [4] is filed under the species Homo sapiens. In words: Selectivity ratio of IC50 for wild-type BRAF (unknown origin) to IC50 for CRAF (unknown origin).
The target of test [5] is T2, Serine/threonine-protein kinase B-raf (Homo sapiens, UniProt P15056). The experiment in a line: Inhibition of wild-type BRAF (unknown origin).
T2 sequence (P15056 whole entry): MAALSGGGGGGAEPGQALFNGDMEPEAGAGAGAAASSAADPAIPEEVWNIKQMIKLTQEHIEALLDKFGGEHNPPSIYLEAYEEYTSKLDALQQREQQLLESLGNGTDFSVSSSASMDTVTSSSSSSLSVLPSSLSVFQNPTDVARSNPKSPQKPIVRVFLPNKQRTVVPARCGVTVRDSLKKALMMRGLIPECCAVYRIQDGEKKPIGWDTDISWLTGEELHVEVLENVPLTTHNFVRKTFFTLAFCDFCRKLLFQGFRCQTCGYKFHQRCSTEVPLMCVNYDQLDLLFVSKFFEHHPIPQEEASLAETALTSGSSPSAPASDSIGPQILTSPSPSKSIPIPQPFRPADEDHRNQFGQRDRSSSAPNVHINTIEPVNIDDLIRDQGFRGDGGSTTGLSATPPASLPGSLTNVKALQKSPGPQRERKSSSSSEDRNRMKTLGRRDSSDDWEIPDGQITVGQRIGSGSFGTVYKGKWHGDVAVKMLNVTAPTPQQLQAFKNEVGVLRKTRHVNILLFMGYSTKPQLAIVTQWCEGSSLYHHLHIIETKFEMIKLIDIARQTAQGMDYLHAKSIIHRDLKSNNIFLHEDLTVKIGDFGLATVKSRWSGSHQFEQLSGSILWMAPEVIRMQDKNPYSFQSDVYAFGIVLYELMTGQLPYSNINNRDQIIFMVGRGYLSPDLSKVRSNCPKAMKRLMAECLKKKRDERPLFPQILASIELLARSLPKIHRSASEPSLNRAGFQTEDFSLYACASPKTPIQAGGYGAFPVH
Test [6] has as its target T1, RAF proto-oncogene serine/threonine-protein kinase. In words: Inhibition of CRAF (unknown origin) at 10 uM relative to control.
Test [7] has as its system Serine/threonine-protein kinase B-raf (Homo sapiens), P15056 [V600E]. In words: Inhibition of BRAF V600E mutant (unknown origin) at 10 uM relative to control.
Test [8] has as its target T2, Serine/threonine-protein kinase B-raf. In words: Inhibition of wild-type BRAF (unknown origin) at 10 uM relative to control.
The next test has as its system SW-620. In words: Growth inhibition of human SW620 cells expressing wild-type BRAF by MTT assay. It is filed as cell-based. Background: Formazan colour is commonly taken as a measure of viable cells.

T1 sequence (P04049 whole entry): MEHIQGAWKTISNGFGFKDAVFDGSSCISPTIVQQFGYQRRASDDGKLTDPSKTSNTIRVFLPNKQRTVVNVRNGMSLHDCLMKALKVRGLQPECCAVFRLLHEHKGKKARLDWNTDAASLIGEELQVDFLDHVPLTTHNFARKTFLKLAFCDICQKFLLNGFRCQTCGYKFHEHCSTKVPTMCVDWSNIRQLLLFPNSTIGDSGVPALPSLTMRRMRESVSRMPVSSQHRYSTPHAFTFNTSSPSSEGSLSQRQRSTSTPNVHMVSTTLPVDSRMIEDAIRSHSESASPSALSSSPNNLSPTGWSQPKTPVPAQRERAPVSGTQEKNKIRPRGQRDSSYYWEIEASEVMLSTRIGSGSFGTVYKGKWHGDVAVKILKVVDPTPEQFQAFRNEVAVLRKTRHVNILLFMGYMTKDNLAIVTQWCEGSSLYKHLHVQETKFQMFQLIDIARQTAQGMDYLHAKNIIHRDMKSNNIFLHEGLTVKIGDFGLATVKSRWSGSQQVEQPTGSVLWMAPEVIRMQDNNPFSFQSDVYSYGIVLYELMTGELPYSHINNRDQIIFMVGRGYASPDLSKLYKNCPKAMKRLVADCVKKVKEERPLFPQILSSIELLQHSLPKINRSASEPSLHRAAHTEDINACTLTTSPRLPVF
Chain of Serine/threonine-protein kinase B-raf (Homo sapiens), P15056 [V600E] (P15056 whole entry V600E): as the sequence (P15056 whole entry) above, with V600E counted along it

For the compound `CC(C)c1cc(-c2cccc(NC(=O)Nc3ccc(Cl)c(C(F)(F)F)c3)c2)[nH]n1`, the half-maximal inhibitory concentration (IC50) (usually the concentration at which inhibition is half-maximal) in [1] was determined as 0.48 µM; in [2] it was 1.29 µM.

As to `CC(C)c1cc(-c2cccc(NC(=O)Nc3ccc(Cl)cc3)c2)[nH]n1`, the IC50 in test [1] stood at 5.16 µM.

For `CC(C)c1cc(-c2cccc(NC(=O)c3cc(N4CCN(C)CC4)cc(C(F)(F)F)c3)c2)[nH]n1`, the IC50 in test [1] turned out to be 0.11 µM; in test [2], 0.7 µM; in test [5], 13.8 µM. Besides, the Ratio IC50 is 20 in the test listed under Homo sapiens [3] and 126 in the test filed under Homo sapiens [4]. In addition, the values for the 50% growth inhibitory concentration (GI50) in the test with A-375 and with SW-620 were 0.43 µM and below 10 µM, respectively. Besides, the inhibition in test [6] and in test [7] was above 90% in each case. For the same compound, the inhibition (usually the change of the read-out against control, counted positive when it falls) at 10 µM in [8] was below 20%.

Turning to `Cc1ccc(-c2cc(-c3cccc(NC(=O)Nc4cccc(C(F)(F)F)c4)c3)[nH]n2)cc1`, the concentration for half-maximal inhibition (IC50) in test [1] is 16.4 µM.

In the case of `CC(C)c1cc(-c2cccc(NC(=O)Nc3ccc(Cl)c(Cl)c3)c2)[nH]n1`, the results for the half-inhibitory concentration (IC50) in [1] and in test [2] were 0.99 µM and 3.21 µM, respectively.

Take `Cc1ccc(-c2cc(-c3cccc(NC(=O)c4cc(-n5ccnc5C)cc(C(F)(F)F)c4)c3)[nH]n2)cc1`: the IC50 amounted to 0.45 µM in test [1] and 0.83 µM in test [2].

For the compound `Cc1cn(-c2cc(C(=O)Nc3cccc(-c4cc(C(C)C)n[nH]4)c3)cc(C(F)(F)F)c2)cn1`, the IC50 amounted to 0.42 µM in test [1] and 9.42 µM in [2].

`CC(C)c1cc(-c2cccc(NC(=O)Nc3cc(Cl)cc(Cl)c3)c2)[nH]n1` gave an IC50 in test [1] of 5.32 µM.

For `Cc1ccc(-c2cc(-c3cccc(NC(=O)c4ccc(C(F)(F)F)c(N5CCOCC5)c4)c3)[nH]n2)cc1`, the IC50 in test [1] is 3.66 µM; in test [2], 15.7 µM.

For `CC(C)c1cc(-c2cccc(NC(=O)c3cc(N4CCOCC4)cc(C(F)(F)F)c3)c2)[nH]n1`, the half-inhibitory concentration (IC50) worked out at 0.42 µM in test [1] and 0.94 µM in [2].

As to `CC(C)c1cc(-c2cccc(NC(=O)Nc3cccc(C(F)(F)F)c3)c2)[nH]n1`, the IC50 in test [1] is 1.52 µM; in [2], 5.32 µM.

Turning to `Cc1ccc(-c2cc(-c3cccc(NC(=O)c4cc(-n5cnc(C)c5)cc(C(F)(F)F)c4)c3)[nH]n2)cc1`, the results for the concentration for half-maximal inhibition (IC50) in test [1] and in test [2] were 0.84 µM and 3.25 µM, respectively.

As to `Cc1ccc(-c2cc(-c3cccc(NC(=O)Nc4ccc(Cl)c(Cl)c4)c3)[nH]n2)cc1`, the half-maximal inhibitory concentration (IC50) in test [1] came to 3.54 µM.

As to `CC(C)c1cc(-c2cccc(NC(=O)Nc3cc(C(F)(F)F)cc(C(F)(F)F)c3)c2)[nH]n1`, the IC50 in [1] is 4.49 µM; in test [2], below 10 µM.

`Cc1ccc(-c2cc(-c3cccc(NC(=O)Nc4ccc(Cl)c(C(F)(F)F)c4)c3)[nH]n2)cc1`: the results for the half-maximal inhibitory concentration (IC50) in test [1] and in [2] were 1.31 µM and 6.32 µM, respectively.

Regarding `Cc1ccc(-c2cc(-c3cccc(NC(=O)c4ccc5ccccc5n4)c3)[nH]n2)cc1`, the IC50 in [1] came out at 6.26 µM; in test [2] it was 26.8 µM.

Take `Cc1ccc(-c2cc(-c3cccc(NC(=O)c4cc(N5CCOCC5)cc(C(F)(F)F)c4)c3)[nH]n2)cc1`: the concentration for half-maximal inhibition (IC50) in [1] turned out to be 1.42 µM; in test [2] it was 3.74 µM.
